In publication PMC11969553, “Expression of Human β3GalT5–1 in Insect Cells as Active Glycoforms for the Efficient Synthesis of Cancer-Associated Globo-Series Glycans” (Journal of the American Chemical Society, 2025):

Columns and labels:
[1] = target: T1, membrane-bound β3GalT5–1 (Homo sapiens, UniProt Q9Y2C3); assay: galactosyltransferase activity; assay type: biochemical; settings: UDP-Gal, with or without 1% LMNG
T1 construct: gene B3GALT5; full length M1-V310, C-terminal Flag tag, expressed in HEK293 cells, LMNG-extracted, anti-Flag purified
T1 sequence (Q9Y2C3 1-310): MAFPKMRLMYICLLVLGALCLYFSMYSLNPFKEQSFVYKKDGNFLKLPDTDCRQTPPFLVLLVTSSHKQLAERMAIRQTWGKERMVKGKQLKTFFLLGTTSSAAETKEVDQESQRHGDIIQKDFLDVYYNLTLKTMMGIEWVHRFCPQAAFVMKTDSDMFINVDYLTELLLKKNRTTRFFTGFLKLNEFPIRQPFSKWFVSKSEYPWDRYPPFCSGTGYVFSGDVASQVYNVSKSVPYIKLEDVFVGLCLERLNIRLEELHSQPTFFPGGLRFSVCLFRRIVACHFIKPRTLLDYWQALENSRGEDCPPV

[2] = target: T2, soluble β3GalT5-1 (insect) (Homo sapiens, UniProt Q9Y2C3); assay: X-ray crystal structure; assay type: binding; settings: acceptor site, Mn2+
T2 construct: gene B3GALT5; crystal: Phe31-Pro308 stated, Asp41-Pro308 visible
T2 sequence (Q9Y2C3 29-310): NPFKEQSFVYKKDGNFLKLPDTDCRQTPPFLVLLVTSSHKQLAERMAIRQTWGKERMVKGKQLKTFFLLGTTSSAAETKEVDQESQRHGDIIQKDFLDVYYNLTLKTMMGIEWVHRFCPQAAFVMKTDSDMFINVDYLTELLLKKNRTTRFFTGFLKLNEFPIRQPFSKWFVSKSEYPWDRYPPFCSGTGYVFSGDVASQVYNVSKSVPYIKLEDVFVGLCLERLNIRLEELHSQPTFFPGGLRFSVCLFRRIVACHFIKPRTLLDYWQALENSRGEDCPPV

[3] = target: T3, membrane-bound β3GalT5–2 (Homo sapiens, UniProt A0A0A0MS93); assay: galactosyltransferase activity; assay type: biochemical; settings: UDP-Gal, with or without 1% LMNG
T3 construct: gene B3GALT5; full length, 314 residues, C-terminal Flag tag, expressed in HEK293 cells, LMNG-extracted, anti-Flag purified
T3 sequence (A0A0A0MS93 1-314): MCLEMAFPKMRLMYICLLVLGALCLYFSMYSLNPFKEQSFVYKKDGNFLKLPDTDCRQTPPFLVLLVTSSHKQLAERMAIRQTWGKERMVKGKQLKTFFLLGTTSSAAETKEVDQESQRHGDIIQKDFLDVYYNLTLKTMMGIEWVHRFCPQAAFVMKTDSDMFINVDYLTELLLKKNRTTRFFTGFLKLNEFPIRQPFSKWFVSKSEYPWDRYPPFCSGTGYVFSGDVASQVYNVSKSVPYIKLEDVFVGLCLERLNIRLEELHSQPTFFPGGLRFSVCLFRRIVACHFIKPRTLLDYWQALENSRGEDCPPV

CC(=O)N[C@H]1[C@H](O[C@H]2[C@@H](O)[C@@H](CO)O[C@H](O[C@@H]3[C@H](O)[C@@H](O)[C@H](O[C@H]4[C@H](O)[C@@H](O)C(O)O[C@@H]4CO)O[C@@H]3CO)[C@@H]2O)O[C@H](CO)[C@H](O)[C@@H]1O (stereo partly drawn) [Gb4 glycan]
galactosyltransferase activity [1]: regardless of whether Gb4 or Gb4 glycan was used as a substrate | X-ray crystal structure [2]: the acceptor substrate Gb4 glycan is represented by pink sticks | galactosyltransferase activity [3]: regardless of whether Gb4 or Gb4 glycan was used as a substrate
